# Results taken from patent publication US4960775A, “Pyrrolophthalazines” (May & Baker Limited, priority 1987, dated 1990).
# Molecular target: T1, rat hepatic microsomal HMG CoA reductase (Rattus norvegicus, UniProt P51639)
# T1 construct: rat hepatic microsomal HMG CoA reductase activity in vitro; from tissue; host or cells: rat liver microsomes
# T1 sequence (P51639 1-887): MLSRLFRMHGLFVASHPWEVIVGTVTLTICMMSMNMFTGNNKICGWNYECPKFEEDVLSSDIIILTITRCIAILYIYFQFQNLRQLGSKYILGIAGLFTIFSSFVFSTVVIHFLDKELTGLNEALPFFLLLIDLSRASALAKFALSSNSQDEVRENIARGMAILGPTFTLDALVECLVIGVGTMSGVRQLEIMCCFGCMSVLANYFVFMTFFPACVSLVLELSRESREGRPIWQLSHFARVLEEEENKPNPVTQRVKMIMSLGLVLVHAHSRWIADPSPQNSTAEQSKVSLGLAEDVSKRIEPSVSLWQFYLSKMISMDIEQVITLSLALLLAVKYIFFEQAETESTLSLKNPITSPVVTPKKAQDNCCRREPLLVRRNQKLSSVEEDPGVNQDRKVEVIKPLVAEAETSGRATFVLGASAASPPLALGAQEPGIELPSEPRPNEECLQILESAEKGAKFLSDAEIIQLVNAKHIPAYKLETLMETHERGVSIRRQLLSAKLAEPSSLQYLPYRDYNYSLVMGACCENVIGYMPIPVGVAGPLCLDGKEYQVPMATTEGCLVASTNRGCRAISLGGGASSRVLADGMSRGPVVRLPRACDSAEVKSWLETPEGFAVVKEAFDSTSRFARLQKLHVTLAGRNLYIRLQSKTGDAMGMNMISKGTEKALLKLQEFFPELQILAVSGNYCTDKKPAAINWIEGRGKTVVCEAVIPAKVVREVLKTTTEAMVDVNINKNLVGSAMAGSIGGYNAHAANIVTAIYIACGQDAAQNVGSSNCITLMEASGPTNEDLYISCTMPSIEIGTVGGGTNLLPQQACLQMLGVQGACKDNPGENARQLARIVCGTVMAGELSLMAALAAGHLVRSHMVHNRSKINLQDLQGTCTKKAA
# Test: inhibition of rat hepatic microsomal HMG CoA reductase activity in vitro
# Type: biochemical
# Details: for inhibition at 0.027 µg/mL: 0.027 micrograms/ml; for inhibition at 0.082 µg/mL: 0.082 micrograms/ml; for inhibition at 0.24 µg/mL: 0.24 micrograms/ml; for inhibition at 0.74 µg/mL: 0.74 micrograms/ml; for inhibition at 2.22 µg/mL: 2.22 micrograms/ml; for inhibition at 6.66 µg/mL: 6.66 micrograms/ml; for inhibition at 0.25 µg/mL: 0.25 micrograms/ml; for inhibition at 6.67 µg/mL: 6.67 micrograms/ml; for inhibition at 20 µg/mL: 20.0 micrograms/ml
# Excerpt: In the table the concentrations of the test compounds are expressed in micrograms/ml.
Compound,inhibition at 0.027 µg/mL,inhibition at 0.082 µg/mL,inhibition at 0.24 µg/mL,inhibition at 6.66 µg/mL,inhibition at 0.27 µg/mL (0.27 micrograms/ml (so in the source)),inhibition at 0.74 µg/mL,inhibition at 2.22 µg/mL,inhibition at 0.25 µg/mL,inhibition at 6.67 µg/mL,inhibition at 20 µg/mL
"CC(C)c1c(/C=C/C(O)CC(O)CC(=O)O)c(-c2ccc(F)cc2)c2c3ccccc3cnn12 (stereo not drawn) [Compound D, sodium (E)-7-{1-(4-fluorophenyl)-3-isopropylpyrrolo[2,1-a]-phthalazin-2-yl)-3,5-dihydroxyhept-6-enoate]",47%,50%,,,,66%,76%,61%,90%,
"CCOC(=O)C[C@H](O)C[C@H](O)/C=C/c1c(-c2ccc(F)cc2)c2c3ccccc3cnn2c1C(C)C (relative stereo) [CA, ethyl erythro-(E)-7-{1-(4-fluorophenyl)-3-isopropylpyrrolo[2,1-a]phthalazin-2-yl)-3,5-dihydroxyhept-6-enoate]",23%,33%,47%,95%,,65%,85%,,,
"CC(C)c1c(/C=C/C(=O)CC(O)CC(=O)O)c(-c2ccc(F)cc2)c2c3ccccc3cnn12 (stereo not drawn) [Compound G, sodium (E)-7-{1-(4-fluorophenyl)-3-isopropylpyrrolo[2,1-a]phthalazin-2-yl)-3-hydroxy-5-oxohept-6-enoate]",,,,77%,,29%,52%,,,92%
"CC(C)c1c(/C=C/C(O)CC(O)CC(=O)O)c(-c2ccccc2)c2c3ccccc3cnn12 (stereo not drawn) [Compound B, sodium (E)-3,5-dihydroxy-7-(3-isopropyl-1-phenylpyrrolo[2,1-a]phthalazin-2-yl)-hept-6-enoate]",,,,,,56%,74%,38%,90%,98%

# More lines, main results first:
inhibition at 0.027 µg/mL,inhibition at 0.082 µg/mL,inhibition at 0.24 µg/mL,inhibition at 6.66 µg/mL,inhibition at 0.27 µg/mL (0.27 micrograms/ml (so in the source)),Compound,inhibition at 0.74 µg/mL,inhibition at 2.22 µg/mL,inhibition at 0.25 µg/mL,inhibition at 6.67 µg/mL,inhibition at 20 µg/mL
49%,58%,72%,98%,,"CC(C)c1c(/C=C/[C@@H](O)C[C@@H](O)CC(=O)O)c(-c2ccc(F)cc2)c2c3ccccc3cnn12 (relative stereo) [Compound DA, sodium erythro-(E)-7-{1-(4-fluorophenyl)-3-isopropylpyrrolo[2,1-a]phthalazin-2-yl}-3,5-dihydroxyhept-6-enoate]",86%,94%,,,
,34%,45%,85%,29%,"CC(C)c1c(/C=C/[C@@H](O)C[C@H](O)CC(=O)O)c(-c2ccc(F)cc2)c2c3ccccc3cnn12 (relative stereo) [Compound DB, sodium threo-(E)-7-{1-(4-fluorophenyl)-3-isopropylpyrrolo[2,1-a]-phthalazin-2-yl}-3,5-dihydroxyhept-6-enoate]",52%,67%,,,
